Reference: US12655150B2 (Cedilla Therapeutics, Inc., priority 2021, dated 2026)

The molecules below were run on NCI-H226 (assay: 72H TEAD Proliferation Assay (Cell Titer Glo 2.0)). Details: Homo sapiens, NCI-H226, 72 h, CTG 2.0, cell line not given (NCI-H226 responsive, NCI-H28 non-responsive).
Type: cell-based
Outline: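 NF2-deficient NCI-H226 mesothelioma cells, TEAD-dependent, treated 72 h; NF2-wild-type NCI-H28 serves as the TEAD-independent counter-screen for off-target cytotoxicity. Viable cells quantified by CellTiter-Glo 2.0 luminescence; background and time-zero signal subtracted, GI50 from nonlinear dose-response fit.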
`CS(=O)(=O)NCc1cn2cccc2c(-c2ccc(C(F)(F)F)cc2)n1` [I-320, N-((1-(4-(trifluoromethyl)phenyl)pyrrolo[1,2-a]pyrazin-3-yl)methyl)methanesulfonamide] gave a GI50 of 1000 to 5000 nM. Molecule `Cc1cc(C(=O)O)cc2nc(-c3ccc(C(C)(C)C)cc3)c3cccn3c12` [I-321, 4-(4-(Tert-butyl)phenyl)-9-methylpyrrolo[1,2-a]quinoxaline-7-carboxylic acid] has a GI50 of 1000 to 5000 nM. In the case of `C=CC(=O)NCc1nc(-c2ccc(C(F)(F)F)cc2)cc2nccn12` [I-322, N-((7-(4-(Trifluoromethyl)phenyl)imidazo[1,2-c]pyrimidin-5-yl)methyl)acrylamide], the GI50 is reported as at most 1000 nM. `CC(C)(C)c1ccc(-c2nc3cc(S(C)(=O)=O)ccc3n3cccc23)cc1` [I-323, 4-(4-(tert-butyl)phenyl)-7-(methylsulfonyl)pyrrolo[1,2-a]quinoxaline] gave a GI50 of 1000 to 5000 nM. `COc1cc(-c2ccc(C(F)(F)F)cc2)nc2cc(C(=O)N[C@H](C)CO)ccc12` [I-324, (R)—N-(1-hydroxypropan-2-yl)-4-methoxy-2-(4-(trifluoromethyl)phenyl)quinoline-7-carboxamide] gave a GI50 of at most 1000 nM. `COc1cc(-c2ccc(C(F)(F)F)cc2)nc2cc(C(=O)N[C@@H](C)CO)ccc12` [I-325, (S)—N-(1-hydroxypropan-2-yl)-4-methoxy-2-(4-(trifluoromethyl)phenyl)quinoline-7-carboxamide] gave a GI50 of at most 1000 nM. `CC[C@H](CO)NC(=O)c1ccc2c(OC)cc(-c3ccc(C(F)(F)F)cc3)nc2c1` [I-326, (R)—N-(1-hydroxybutan-2-yl)-4-methoxy-2-(4-(trifluoromethyl)phenyl)quinoline-7-carboxamide] gave a GI50 of at most 1000 nM. Molecule `COc1cc(-c2ccc(C(F)(F)F)cc2)nc2cc(C(=O)N[C@@H](C)c3ccccn3)ccc12` [I-327, (S)-4-methoxy-N-(1-(pyridin-2-yl)ethyl)-2-(4-(trifluoromethyl)phenyl)quinoline-7-carboxamide] has a GI50 of at most 1000 nM. Molecule `COc1cc(N2CCC(C(F)(F)F)CC2)nc2cc(C(=O)N[C@H](C)CO)ccc12` [I-328, (R)—N-(1-hydroxypropan-2-yl)-4-methoxy-2-(4-(trifluoromethyl)piperidin-1-yl)quinoline-7-carboxamide] has a GI50 of 1000 to 5000 nM. Molecule `C[C@H](CO)NC(=O)c1ccc2c(OC(F)F)cc(-c3ccc(C(F)(F)F)cc3)nc2c1` [I-330, (R)-4-(difluoromethoxy)-N-(1-hydroxypropan-2-yl)-2-(4-(trifluoromethyl)phenyl)quinoline-7-carboxamide] has a GI50 of at most 1000 nM. Work on `O=C(O)c1ccc2c(OC(F)F)cc(-c3ccc(C(F)(F)F)cc3)nc2c1` [I-331, 4-(Difluoromethoxy)-2-(4-(trifluoromethyl)phenyl)quinoline-7-carboxylic acid] yielded a GI50 of at most 1000 nM. Molecule `CC[C@H](CO)NC(=O)c1ccc2c(OC)cc(-c3ccc(C(F)(F)F)cc3C)nc2c1` [I-336, (R)—N-(1-hydroxybutan-2-yl)-4-methoxy-2-(2-methyl-4-(trifluoromethyl)phenyl)quinoline-7-carboxamide] has a GI50 of at most 1000 nM. `COc1cc(-c2ccc(C(F)(F)F)cc2F)nc2cc(C(=O)N[C@H](C)CO)ccc12` [I-337, (R)-2-(2-fluoro-4-(trifluoromethyl)phenyl)-N-(1-hydroxypropan-2-yl)-4-methoxyquinoline-7-carboxamide] showed a GI50 of at most 1000 nM. Molecule `CC[C@H](CO)NC(=O)c1ccc2c(OC)cc(-c3ccc(C(F)(F)F)cc3C(F)(F)F)nc2c1` [I-338, (R)-2-(2,4-bis(trifluoromethyl)phenyl)-N-(1-hydroxybutan-2-yl)-4-methoxyquinoline-7-carboxamide] has a GI50 of 1000 to 5000 nM. With `CC[C@H](CO)NC(=O)c1ccc2c(OC)cc(-c3ccc(C(F)(F)F)cc3Cl)nc2c1` [I-341, (R)-2-(2-chloro-4-(trifluoromethyl)phenyl)-N-(1-hydroxybutan-2-yl)-4-methoxyquinoline-7-carboxamide] the GI50 was at most 1000 nM. For `CC[C@H](CO)NC(=O)c1ccc2c(OC)cc(-c3ccc(C(F)(F)F)cc3OC)nc2c1` [I-342, (R)—N-(1-hydroxybutan-2-yl)-4-methoxy-2-(2-methoxy-4-(trifluoromethyl)phenyl)quinoline-7-carboxamide], the GI50 was 1000 to 5000 nM. For `COc1cc(-c2ccc(C(F)(F)F)cc2)nc2cc(C(=O)N[C@@H](CO)C(C)C)ccc12` [I-343, (R)—N-(1-hydroxy-3-methylbutan-2-yl)-4-methoxy-2-(4-(trifluoromethyl)phenyl)quinoline-7-carboxamide], the GI50 was at most 1000 nM. For `COc1cc(-c2ccc(C(F)(F)F)cc2)nc2cc(C(=O)N[C@@H](CO)C3CC3)ccc12` [I-344, (R)—N-(1-cyclopropyl-2-hydroxyethyl)-4-methoxy-2-(4-(trifluoromethyl)phenyl)quinoline-7-carboxamide], the GI50 was at most 1000 nM. Molecule `COc1cc(-c2ccc(C(F)(F)F)cc2)nc2cc(C(=O)N[C@@H](CO)c3ccccc3)ccc12` [I-345, (R)—N-(2-hydroxy-1-phenylethyl)-4-methoxy-2-(4-(trifluoromethyl)phenyl)quinoline-7-carboxamide] has a GI50 of at most 1000 nM. With `COc1cc(-c2ccc(C(F)(F)F)cc2)nc2cc(C(=O)N[C@@H](C)c3cccc(C(=O)O)c3)ccc12` [I-347, (S)-3-(1-(4-methoxy-2-(4-(trifluoromethyl)phenyl)quinoline-7-carboxamido)ethyl)benzoic acid] the GI50 was 5000 to 10000 nM. `COc1cccc([C@H](C)NC(=O)c2ccc3c(OC)cc(-c4ccc(C(F)(F)F)cc4)nc3c2)c1` [I-348, (S)-4-methoxy-N-(1-(3-methoxyphenyl)ethyl)-2-(4-(trifluoromethyl)phenyl)quinoline-7-carboxamide] gave a GI50 of at most 1000 nM. Work on `COc1cc(-c2ccc(C(F)(F)F)cc2)nc2cc(C(=O)N[C@@H](C)c3cccc(O)c3)ccc12` [I-349, (S)—N-(1-(3-hydroxyphenyl)ethyl)-4-methoxy-2-(4-(trifluoromethyl)phenyl)quinoline-7-carboxamide] yielded a GI50 of at most 1000 nM. With `COc1cc(-c2ccc(C(F)(F)F)cc2)nc2cc(C(=O)N[C@@H](C)c3cccc(N)c3)ccc12` [I-350, (S)—N-(1-(3-aminophenyl)ethyl)-4-methoxy-2-(4-(trifluoromethyl)phenyl)quinoline-7-carboxamide] the GI50 was at most 1000 nM. `COc1cc(-c2ccc(C(F)(F)F)cc2)nc2cc(C(=O)N[C@@H](C)c3ccccc3)ccc12` [I-351, (S)-4-methoxy-N-(1-phenylethyl)-2-(4-(trifluoromethyl)phenyl)quinoline-7-carboxamide] was tested, and the GI50 was at most 1000 nM. For `COc1cc(-c2ccc(C(F)(F)F)cc2)nc2cc(C(=O)NC(C)(C)CO)ccc12` [I-352, N-(1-hydroxy-2-methylpropan-2-yl)-4-methoxy-2-(4-(trifluoromethyl)phenyl)quinoline-7-carboxamide], the GI50 was 1000 to 5000 nM. `COc1cc(-c2ccc(C(F)(F)F)cc2)nc2cc(C(=O)NC3(CO)CC3)ccc12` [I-353, N-(1-(hydroxymethyl)cyclopropyl)-4-methoxy-2-(4-(trifluoromethyl)phenyl)quinoline-7-carboxamide] gave a GI50 of 1000 to 5000 nM. With `CC[C@H](CO)NC(=O)c1ccc2c(OC)cc(-c3ccc(C(F)(F)F)cn3)nc2c1` [I-358, (R)—N-(1-hydroxybutan-2-yl)-4-methoxy-2-(5-(trifluoromethyl)pyridin-2-yl)quinoline-7-carboxamide] the GI50 was at most 1000 nM. Work on `COc1cc(-c2ccc(C(F)(F)F)cn2)nc2cc(C(=O)O)ccc12` [I-361, 4-methoxy-2-(5-(trifluoromethyl)pyridin-2-yl)quinoline-7-carboxylic acid] yielded a GI50 of 1000 to 5000 nM.
